Among the data in patent US20240287052A1, “NOVEL OXAZOLE DERIVATIVE AND PHARMACEUTICAL COMPOSITION FOR PREVENTING OR TREATING ALLERGIC DISEASES COMPRISING THE SAME” (AZCURIS CO., LTD., priority 2021, published 2024) are inhibition values, retold here.

This assay addresses T1, IL33 and ST2 binding (Homo sapiens, UniProt O95760).
T1 sequence (O95760 112-270 limits assumed): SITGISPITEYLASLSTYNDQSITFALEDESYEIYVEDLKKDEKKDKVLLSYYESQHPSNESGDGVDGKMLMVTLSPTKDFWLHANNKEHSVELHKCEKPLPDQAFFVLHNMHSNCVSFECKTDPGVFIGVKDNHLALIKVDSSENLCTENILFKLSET

Where two headings read alike, the source gives them in different places.
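Further: plate ELISA with coated Flag-tagged human IL-33 and His-tagged human ST2, bound ST2 detected by anti-His HRP and TMB absorbance at 450 nm, 2 h compound incubation.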

Broadly, the inhibition is the relative decrease from the control value, in per cent. Turning to `CCOC(=O)c1nc(-c2ccc(F)cc2)oc1-c1ccccc1[N+](=O)[O-]` [Compound 68, Ethyl 2-(4-fluorophenyl)-5-(2-nitrophenyl)oxazole-4-carboxylate], the inhibition by setting is: (30 µM) 55%; (100 µM) 105%.

On to `CCOC(=O)c1nc(-c2ccc(F)cc2)oc1-c1ccc([N+](=O)[O-])cc1` [Compound 69, Ethyl 2-(4-fluorophenyl)-5-(4-nitrophenyl)oxazole-4-carboxylate], for which the inhibition reads like this: (30 µM) 32%; (100 µM) 48%.

Take `CCOC(=O)c1nc(-c2ccc(F)c(F)c2)oc1-c1ccccc1` [Compound 70, Ethyl 2-(3,4-difluorophenyl)-5-phenyloxazole-4-carboxylate]: the inhibition is, setting by setting: (30 µM) 18%; (100 µM) 41%.

For `CCOC(=O)c1nc(-c2ccc(F)c(F)c2)oc1-c1ccccc1[N+](=O)[O-]` [Compound 71, Ethyl 2-(3,4-difluorophenyl)-5-(2-nitrophenyl)oxazole-4-carboxylate], the inhibition is, setting by setting: (30 µM) 29%; (100 µM) 49%.

Consider `CCOC(=O)c1nc(-c2cc(F)cc(F)c2)oc1-c1ccccc1` [Compound 73, Ethyl 2-(3,5-difluorophenyl)-5-phenyloxazole-4-carboxylate], for which the inhibition by setting is: (30 µM) 12%; (100 µM) 22%.

Turning to `CCOC(=O)c1nc(-c2ccc(Cl)cc2)oc1-c1ccccc1` [Compound 77, Ethyl 2-(4-chlorophenyl)-5-phenyloxazole-4-carboxylate], the inhibition was determined as 95% (30 µM) and 110% (100 µM).

For the compound `CCOC(=O)c1nc(-c2ccc(Cl)cc2)oc1-c1ccccc1[N+](=O)[O-]` [Compound 78, Ethyl 2-(4-chlorophenyl)-5-(2-nitrophenyl)oxazole-4-carboxylate], the inhibition is, setting by setting: (30 µM) 23%; (100 µM) 68%.

`CCOC(=O)c1nc(-c2ccc(C#N)cc2)oc1-c1ccccc1` [Compound 79, Ethyl 2-(4-cyanophenyl)-5-phenyloxazole-4-carboxylate]: the inhibition (30 µM) stood at 41% and the inhibition (100 µM) was 107%.

As to `CCOC(=O)c1nc(-c2ccc(C#N)cc2)oc1-c1ccccc1[N+](=O)[O-]` [Compound 80, Ethyl 2-(4-cyanophenyl)-5-(2-nitrophenyl)oxazole-4-carboxylate], the inhibition (30 µM) amounted to 37% and the inhibition (100 µM) was found to be 89%.

As for `CCOC(=O)c1nc(-c2ccc(-c3ccccc3)cc2)oc1-c1ccccc1` [Compound 81, Ethyl 2-([1,1′-biphenyl]-4-yl)-5-phenyloxazole-4-carboxylate], the inhibition is 59% (30 µM) and 109% (100 µM).

Take `CCOC(=O)c1nc(-c2ccc3ccccc3c2)oc1-c1ccccc1` [Compound 83, Ethyl 2-(naphthalen-2-yl)-5-phenyloxazole-4-carboxylate]: the inhibition worked out at 22% (30 µM) and 42% (100 µM).

Take `CCOC(=O)c1nc(-c2ccc3ccccc3c2)oc1-c1ccccc1[N+](=O)[O-]` [Compound 84, Ethyl 2-(naphthalen-2-yl)-5-(2-nitrophenyl)oxazole-4-carboxylate]: the inhibition runs as follows: (30 µM) 20%; (100 µM) 54%.

As for `CCOC(=O)c1nc(-c2ccc(C(F)(F)F)cc2)oc1-c1cccc(N)c1` [Compound 100, Ethyl 5-(3-aminophenyl)-2-(4-(trifluoromethyl)phenyl)oxazole-4-carboxylate], the inhibition is, setting by setting: (30 µM) 8%; (100 µM) 5%.

Regarding `CCOC(=O)c1nc(-c2ccc(C(F)(F)F)cc2)oc1-c1ccc(N)cc1` [Compound 101, Ethyl 5-(4-aminophenyl)-2-(4-(trifluoromethyl)phenyl)oxazole-4-carboxylate], the inhibition by setting is: (30 µM) 1%; (100 µM) -24%.

As to `CCOC(=O)c1nc(-c2ccc(C(F)(F)F)cc2)oc1-c1cccc(NC(C)=O)c1` [Compound 106, Ethyl 5-(3-acetamidophenyl)-2-(4-(trifluoromethyl)phenyl)oxazole-4-carboxylate], the inhibition was -20% (30 µM) and -2% (100 µM).

Consider `CCOC(=O)c1nc(-c2ccc(C(F)(F)F)cc2)oc1-c1ccc(NC(C)=O)cc1` [Compound 107, Ethyl 5-(4-acetamidophenyl)-2-(4-(trifluoromethyl)phenyl)oxazole-4-carboxylate], for which the inhibition is, setting by setting: (30 µM) -15%; (100 µM) -9%.

As for `CCOC(=O)c1nc(-c2ccc(C(F)(F)F)cc2)oc1-c1cccc(N(C(C)=O)C(C)=O)c1` [Compound 108, Ethyl 5-(3-(N-acetylacetamido)phenyl)-2-(4-(trifluoromethyl)phenyl)oxazole-4-carboxylate], the inhibition runs as follows: (30 µM) -14%; (100 µM) -21%.

Consider `CCOC(=O)c1nc(-c2ccc(C(F)(F)F)cc2)oc1-c1ccc(N(C(C)=O)C(C)=O)cc1` [Compound 109, Ethyl 5-(4-(N-acetylacetamido)phenyl)-2-(4-(trifluoromethyl)phenyl)oxazole-4-carboxylate], for which the inhibition by setting is: (30 µM) 19%; (100 µM) -2%.

On to `CCOC(=O)c1nc(-c2ccc(C(C)(C)C)cc2)oc1-c1ccc(N(C(C)=O)C(C)=O)cc1` [Compound 110, Ethyl 5-(4-(N-acetylacetamido)phenyl)-2-(4-(tert-butyl)phenyl)oxazole-4-carboxylate], for which the inhibition is 19% (30 µM) and 26% (100 µM).

For `CCOC(=O)c1nc(-c2ccc(C(C)(C)C)cc2)oc1-c1ccc(NC(C)=O)cc1` [Compound 111, Ethyl 5-(4-acetamidophenyl)-2-(4-(tert-butyl)phenyl)oxazole-4-carboxylate], the inhibition stood at 10% (30 µM) and 12% (100 µM).

Regarding `CN(C)CCNC(=O)c1coc(-c2ccc(C(F)(F)F)cc2)n1` [Compound 114, N-(2-(dimethylamino)ethyl)-2-(4-(trifluoromethyl)phenyl)oxazole-4-carboxamide], the inhibition is, setting by setting: (30 µM) 10%; (100 µM) 9%.

On to `CN1CCN(CCNC(=O)c2coc(-c3ccc(C(F)(F)F)cc3)n2)CC1` [Compound 115, N-(2-(4-methylpiperazin-1-yl)ethyl)-2-(4-(trifluoromethyl)phenyl)oxazole-4-carboxamide], for which the inhibition reads like this: (30 µM) -22%; (100 µM) -17%.

As to `CN(C)CCN1CCN(C(=O)c2coc(-c3ccc(C(F)(F)F)cc3)n2)CC1` [Compound 116, (4-(2-(dimethylamino)ethyl)piperazin-1-yl)(2-(4-(trifluoromethyl)phenyl)oxazol-4-yl)methanone], the inhibition reads like this: (30 µM) 13%; (100 µM) 26%.

In the case of `CN(C)CCNC(=O)c1nc(-c2ccccc2C(F)(F)F)oc1-c1ccccc1` [Compound 117, N-(2-(Dimethylamino)ethyl)-5-phenyl-2-(2-(trifluoromethyl)phenyl)oxazole-4-carboxamide], the inhibition was 4% (30 µM) and 10% (100 µM).

In the case of `CN1CCN(CCNC(=O)c2nc(-c3ccccc3C(F)(F)F)oc2-c2ccccc2)CC1` [Compound 118, N-(2-(4-Methylpiperazin-1-yl)ethyl)-5-phenyl-2-(2-(trifluoromethyl)phenyl)oxazole-4-carboxamide], the inhibition stood at 24% (30 µM) and 36% (100 µM).
